# Assay results published in publication PMC5357725, “Global update on the susceptibility of human influenza viruses to neuraminidase inhibitors, 2014–2015” (Antiviral Research, 2016).
# Experiments:
# [1] = target: B/Victoria-lineage neuraminidase (NA); format: biochemical, influenza B/Victoria-lineage virus
# [2] = system: A(H1N1)pdm09 neuraminidase (NA); format: biochemical, influenza A(H1N1)pdm09 virus
SMILES,IC50 values fold higher than the median [1],"inhibition class (NI, RI, HRI) [2]"
"CCC(CC)[C@H](NC(C)=O)[C@@H]1[C@H](O)[C@@H](C(=O)O)C[C@H]1N=C(N)N [Peramivir, peramivir]",8- to 14 fold,
"[H]/N=C(\N)N[C@H]1C=C(C(=O)O)O[C@@H]([C@H](OC)[C@H](O)CO)[C@@H]1NC(C)=O [Laninamivir, laninamivir]",,NI (key: normal inhibition (NI) (A viruses <10-fold; reduced inhibition (RI) (A viruses 10- to 100-fold; highly reduced inhibition (HRI) (A viruses >100-fold)
